The values that follow come from paper PMC9655037, “Alternation of Organ-Specific Exposure in LPS-Induced Pneumonia Mice after the Inhalation of Tetrandrine Is Governed by Metabolizing Enzyme Suppression and Lysosomal Trapping” (International Journal of Molecular Sciences, 2022).

A short description of series [1]: Bidirectional transport in MOCK LLC-PK1 cells. Conditions: pig. The procedure:
(§1) MDR1 expressing LLC-PK1 cells or MOCK LLC-PK1 cells were utilized to identify whether P-gp is involved in the efflux transport across the membrane barrier. Cells were cultured as described above. Cells were seeded at a density of 2 × 10^4 in Millicell® 24-well cell culture plates with a 6.5 mm insert (0.4 µm polycarbonate membrane) from Corning (Kennebunk, ME, USA) 7 days before the experiments. On the day of the experiment, transepithelial electrical resistance (TEER) was measured to assess monolayer integrity. After washing the cells twice with HBSS, transport experiments in either the apical-to-basolateral direction (A-B) or the basolateral-to-apical direction (B-A) were conducted. […] After incubating the plates at 37 °C for 2 h, samples from the receiving and donor wells (50 μL) were taken simultaneously. All the samples were stored at −40 °C for LC-MS/MS analysis.
(§2) In the bidirectional transport study in LLC-PK1 cells, the following equations were used to calculate Papp values and the MDR1 efflux ratio.

The next series concerns the target MDR1 (Homo sapiens, UniProt P08183). Put plainly: Bidirectional transport in MDR1-transfected LLC-PK1 cells. Conditions: MDR1-transfected; 2 μM TET, 10 μM metoprolol, 10 μM atenolol, 2 μM digoxin; TAR 5 μM where stated; 2 h, 37 °C. The procedure: as §1, §2
The next series concerns the target MDR1 (P-gp) (Homo sapiens, UniProt P08183). Described as above. The procedure:
as §1, §2

The target in a further series is T1, OATP1B3 (Homo sapiens, UniProt Q9NPD5).
T1 sequence (Q9NPD5 1-702): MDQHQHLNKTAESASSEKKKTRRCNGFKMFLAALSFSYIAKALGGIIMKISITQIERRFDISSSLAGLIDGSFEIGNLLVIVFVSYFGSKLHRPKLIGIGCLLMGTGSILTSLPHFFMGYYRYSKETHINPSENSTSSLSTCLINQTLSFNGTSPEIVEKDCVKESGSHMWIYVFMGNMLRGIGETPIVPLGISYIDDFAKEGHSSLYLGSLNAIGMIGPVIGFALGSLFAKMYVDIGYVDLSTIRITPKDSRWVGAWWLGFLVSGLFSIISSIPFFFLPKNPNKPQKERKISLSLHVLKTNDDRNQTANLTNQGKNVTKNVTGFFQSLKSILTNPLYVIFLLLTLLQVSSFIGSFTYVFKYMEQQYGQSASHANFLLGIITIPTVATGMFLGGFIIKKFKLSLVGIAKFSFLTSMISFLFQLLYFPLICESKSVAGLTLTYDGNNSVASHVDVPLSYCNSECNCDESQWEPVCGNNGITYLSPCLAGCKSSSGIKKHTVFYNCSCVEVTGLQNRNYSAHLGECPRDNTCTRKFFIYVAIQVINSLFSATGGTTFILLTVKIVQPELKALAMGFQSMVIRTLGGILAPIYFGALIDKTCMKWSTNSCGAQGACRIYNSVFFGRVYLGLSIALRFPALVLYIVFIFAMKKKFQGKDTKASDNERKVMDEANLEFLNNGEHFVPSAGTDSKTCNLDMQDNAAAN
The series can be described thus: Uptake by OATP1B3-expressing HEK293 cells. Conditions: positive control 20 μM, 10 min. The procedure:
(§3) Expressing OATP1B1/OATP1B3 or MOCK HEK293 cells were utilized to evaluate whether TET is a substrate of these two SLC transporters. Cell culture was performed as mentioned above. Cells were seeded on 96-well plates at the density of 0.8 × 10^5 cells/well. The culture medium was replaced with a medium containing 5 mM sodium butyrate for 24 h before the transport study to enhance the expression of transporters. For the transport assay, the DMEM media were removed and the cells were washed with pre-warmed Krebs–Henseleit buffer twice (0.1 mL/well). The second washing buffer was kept in the wells and the plate was incubated at 37 °C for 5 min before the uptake assay was initiated. […] The incubation solution was removed and the cells were washed with ice-cold transportation buffer three times (0.1 mL/well). A total of 0.1 mL pure water was added to each well to lyse the cells by repeated freezing and thawing (−196 °C–37 °C, three times). The cell lysate was collected and stored at −40 °C for LC-MS/MS analysis and protein measurement.
(§4) In the uptake study of TET by OATP1B1 and OATP1B3 expressing the HEK293 cell line, the uptake clearance (U) of the substrate was calculated according to Equation (5), the transporter-mediated uptake ratio (UR) was calculated by dividing the uptake clearance from transporter-expressing cells to that from the mock cells according to Equation (6), and the inhibition ratio (IR) was calculated according to Equation (7), where p represents the protein content and T is the duration of the incubation time. (5) U=Clysate/p×T (6) UR=U/UMOCK (7) IR=(1−Uwith inhibitor−Umock with inhibitor/Uwithout inhibitor−Umock without inhibitor)×100

The subject of a further series is HEK293-MOCK cells. Put plainly: Uptake by MOCK (empty vector) HEK293 cells. Conditions: positive control 20 μM, 10 min. The procedure:
as §3, §4

Another series concerns CYP3a. The series can be described thus: CYP3a probe substrate turnover in microsomes from normal and LPS-treated mice. The series is classed as in vitro ADME, mouse. Conditions: microsomes of LPS-treated vs normal mice, Figure 4A.

MDR1 (P-gp), sequence (P08183 whole entry): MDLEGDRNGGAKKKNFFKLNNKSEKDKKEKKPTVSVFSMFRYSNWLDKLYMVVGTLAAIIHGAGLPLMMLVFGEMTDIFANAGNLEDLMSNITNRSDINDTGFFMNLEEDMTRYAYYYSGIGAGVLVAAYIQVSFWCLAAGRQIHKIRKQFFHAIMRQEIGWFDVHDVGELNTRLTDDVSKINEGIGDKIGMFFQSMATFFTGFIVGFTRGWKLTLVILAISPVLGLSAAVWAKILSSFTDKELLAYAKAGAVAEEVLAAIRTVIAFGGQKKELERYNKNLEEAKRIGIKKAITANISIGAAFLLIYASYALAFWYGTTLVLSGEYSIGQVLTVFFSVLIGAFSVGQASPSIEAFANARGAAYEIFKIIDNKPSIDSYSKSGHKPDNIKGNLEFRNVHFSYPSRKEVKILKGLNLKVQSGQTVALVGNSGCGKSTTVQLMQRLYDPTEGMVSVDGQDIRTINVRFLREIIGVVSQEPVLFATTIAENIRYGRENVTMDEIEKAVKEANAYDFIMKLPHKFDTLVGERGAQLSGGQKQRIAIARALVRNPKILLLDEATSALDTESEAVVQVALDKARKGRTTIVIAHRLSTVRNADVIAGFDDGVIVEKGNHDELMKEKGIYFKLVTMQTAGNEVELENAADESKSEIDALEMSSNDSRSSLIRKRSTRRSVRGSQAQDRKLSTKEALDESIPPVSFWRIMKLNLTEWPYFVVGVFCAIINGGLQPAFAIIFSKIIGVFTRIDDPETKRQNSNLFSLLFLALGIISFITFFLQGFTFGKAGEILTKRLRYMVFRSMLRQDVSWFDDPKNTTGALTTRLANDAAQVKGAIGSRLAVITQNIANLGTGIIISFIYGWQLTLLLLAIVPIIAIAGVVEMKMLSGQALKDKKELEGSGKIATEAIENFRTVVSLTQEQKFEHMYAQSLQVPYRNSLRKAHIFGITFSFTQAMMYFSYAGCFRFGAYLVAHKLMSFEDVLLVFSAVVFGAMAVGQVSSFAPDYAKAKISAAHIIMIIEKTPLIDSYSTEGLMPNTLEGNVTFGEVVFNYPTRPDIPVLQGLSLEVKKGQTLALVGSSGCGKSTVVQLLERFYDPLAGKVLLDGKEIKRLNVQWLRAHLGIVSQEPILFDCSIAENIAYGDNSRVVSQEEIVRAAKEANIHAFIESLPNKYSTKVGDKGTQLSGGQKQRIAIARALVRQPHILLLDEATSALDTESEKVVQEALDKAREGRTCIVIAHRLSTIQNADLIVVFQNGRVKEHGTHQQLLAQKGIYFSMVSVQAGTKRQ
MDR1, sequence (P08183 whole entry): as above

As a reminder, the Papp A→B is the apparent permeability from the apical to the basolateral side of a cell layer. What is called Papp B→A is how fast a substance crosses the layer from the basolateral side. Usually efflux ratio stands for a quotient of directional permeabilities that is used to spot active efflux. On to `C[C@H]1O[C@@H](O[C@H]2[C@@H](O)C[C@H](O[C@H]3[C@@H](O)C[C@H](O[C@H]4CC[C@@]5(C)[C@H](CC[C@@H]6[C@@H]5C[C@@H](O)[C@]5(C)[C@@H](C7=CC(=O)OC7)CC[C@]65O)C4)O[C@@H]3C)O[C@@H]2C)C[C@H](O)[C@@H]1O` [Digoxin, digoxin], for which, in series [1], the Papp A→B at 2 h was found to be 2.25 ± 0.26 ×10⁻⁶ cm/s, the Papp B→A at 2 h came out at 1.74 ± 0.2 ×10⁻⁶ cm/s and the efflux ratio at 2 h came out at 0.77. At MDR1, the “Papp A-B” value was 0.98 ± 0.11 **^,## and the “Papp B-A” value is given as 11.27 ± 0.77 **^,##. The efflux ratio at 2 h on MDR1 (P-gp) (human, LLC-PK1) amounted to 11.5.

Consider `COCCc1ccc(OCC(O)CNC(C)C)cc1` (centres unmarked) [Metoprolol, metoprolol], for which, in series [1], the Papp A→B at 2 h came to 32.2 ± 2.8 ×10⁻⁶ cm/s, the Papp B→A at 2 h amounted to 25 ± 0.3 ×10⁻⁶ cm/s and the efflux ratio at 2 h is 0.7. This compound gave a Papp A→B at 2 h on MDR1 (P-gp) of 28.2 ± 0.65 ×10⁻⁶ cm/s. At MDR1 (P-gp) (human, LLC-PK1), the Papp B→A at 2 h is 28.3 ± 2.07 ×10⁻⁶ cm/s and the efflux ratio at 2 h is 1.

Regarding `C[C@]12CC[C@@H]3c4ccc(O)cc4CC[C@H]3[C@@H]1CC[C@@H]2O[C@@H]1O[C@H](C(=O)O)[C@@H](O)[C@H](O)[C@H]1O` [Positive Control, 17β-estradiol-17β-D-glucuronide], the “Uptake Clearance” value at OATP1B3 (OATP1B3+RIF) was 3.66 ± 0.03 nM/min/mg Protein; at OATP1B3 (OATP1B3 cells), 30.0 ± 1.46 **^, ## nM/min/mg Protein; in the series with HEK293-MOCK cells (MOCK (OATP1B1 set)), 2.4 ± 0.03 nM/min/mg Protein; in the series with HEK293-MOCK cells (MOCK (OATP1B3 set)), 2.7 ± 0.07 nM/min/mg Protein; in the series on HEK293-MOCK cells (MOCK+RIF (OATP1B1 set)) it was 2.63 ± 0.08 nM/min/mg Protein; with HEK293-MOCK cells (MOCK+RIF (OATP1B3 set)), 2.73 ± 0.08 nM/min/mg Protein.

Take `Cc1ncc2n1-c1ccc(Cl)cc1C(c1ccccc1F)=NC2` [midazolam]: the “1′-hydroxylation reaction lowered by LPS-induced pneumonia” value in the series on CYP3a (at 24 h) is ~ 2.55 fold.

In the case of `C[C@]12CC[C@H]3[C@@H](CCC4=CC(=O)CC[C@@]43C)[C@@H]1CC[C@@H]2O` [testosterone], the “change of 6-β-hydroxylation reaction under inflammation state (no obvious alternation)” value in the series with CYP3a was ~ 1.14 fold.
